What was measured:
[1] = tested on: brain amyloid peptides Aβ1-x; experiment: Rat Brain Aβ Lowering Assay (Assay 5); type: in vivo; details: 3 hrs after dosing
Protocol: Rat Brain Aβ Lowering Assay (Assay 5)
The animals were sacrificed 3 hrs after dosing, and brains were excised, dissected into cerebellum and left and right cerebra and flash-frozen in liquid nitrogen.
The cerebrum was homogenized (5 volumes per weight) in 20 mM Tris-HCL, pH 8.5, 0.2% Triton-X100 supplemented with protease inhibitors (cOmplete, Roche Applied Science) at 4° C. using a glass Dounce homogenizer. The homogenate was centrifuged at 120,000×g for 60 min at 4° C., and the supernatant was collected and analyzed for […] using immunoassay with chemiluminescent detection (Meso-Scale Discovery, Rockville, Md. (MSD)).
Streptavidin 96-well plates (MSD) were pre-blocked with 5% Blocker A solution (MSD) for 1 hr at rt on an orbital shaker and washed 4 times with phosphate buffered saline (PBS). The wells were pre-coated with 20 ng/well of biotinylated antibody SIG-39155 (Clone M3.2, specific for amino acids 10-15 of the rodent Aβ) for 1 hr at rt and washed 4 times with PBS. For Aβ1-x analysis, 25 μl of either the cleared brain lysates or Aβ1-40 standards (8-500 pg/ml, with 2× increment) were incubated for 1 hr at rt with constant shaking. The wells were washed 4 times with PBS, and 25 μl of the detection antibody (Sulfo-TAG labeled anti-Aβ40 antibody supplied by MSD) was added and incubated for 1 hr at rt. After 4 washes with PBS, 150 μl of the chemiluminescence detection reagent (Read Buffer T, MSD) was added, and the plate was read on an MSD Sector Imager 6000 instrument. The calibration curve was fit into a non-linear four-parameter regression model, and the Aβ1-x concentrations were calculated for each well containing the cleared brain lysates. The percent of Aβ lowering was calculated based on the difference with the average Aβ concentration obtained for the brains from the animals treated with vehicle alone.

[2] = tested on: Human Hepatocytes; experiment: In Vitro Hepatocyte Stability Assay (Assay 4); type: in vitro ADME; details: predicted blood clearance as percent of hepatic blood flow
Protocol: In Vitro Hepatocyte Stability Assay (Assay 4)
The metabolic degradation of test compounds was assayed in a hepatocyte suspension. Cryopreserved hepatocytes were incubated in an appropriate buffer system (e.g., Dulbecco's modified eagle medium plus 3.5 μg glucagon/500 mL, 2.5 mg insulin/500 mL and 3.75 mg/500 mL hydrocortison) containing 5% species serum. Following a 30 min preincubation in an incubator (37° C., 10% CO2), 5 μl of test compound solution (80 μM; from 2 mM in DMSO stock solution diluted 1:25 with medium) were added into 395 μl hepatocyte suspension (cell density in the range 0.25−5×10^6 cells/mL, typically 1×10^6 cells/mL; final concentration of test compound final DMSO concentration […]).
The cells were incubated for six h (incubator, orbital shaker) and samples (25 μl) were taken at 0, 0.5, 1, 2, 4 and 6 h. Samples were transferred into acetonitrile and pelleted by centrifugation (5 min). The supernatant was transferred to a new 96 DeepWell™ plate, evaporated under nitrogen and resuspended. Decline of compound was analyzed by HPLC-MS/MS. CLint (in vitro hepatic intrinsic clearance) was calculated as follows: CLint=Dose/AUC=(C0/CD)/(AUD+Clast/k)×1000/60
C0: initial concentration in the incubation [μM];
CD: cell density of vital cells [cells/mL];
AUD: area under the data [μM×h];
Clast: concentration of last data point [μM];
k: slope of the regression line for compound decline [h^−1].
The calculated in vitro hepatic intrinsic clearance was scaled up to the intrinsic in vivo hepatic clearance (Clint in vivo) and used to predict hepatic in vivo blood clearance (CL) by the use of a liver model (well-stirred model), as follows: CLint,in vivo[mL/min/kg]=(CLint[μL/min/10^6 cells]×hepatocellularity[10^6 cells/g liver]×liver factor [g/kg body weight])/1000 CL[mL/min/kg]=CLint,to vivo×hepatic blood flow[ml/min/kg]/(CLint,in vivo[ml/min/kg]+hepatic blood flow[mL/min/kg])
The in vivo blood clearance was transformed into percent of the hepatic blood flow (% Qh): % Qh=CL[mL/min/kg]/hepatic blood flow[mL/min/kg])×100
Hepatocellularity, human: 1.2×10^7 cells/g liver;
Liver factor, human: 25.7 g/kg body weight;
Hepatic blood flow, human: 21 mL/(min×kg).

[3] = target: hERG channel (Homo sapiens (Human), UniProt Q12809); experiment: hERG-Channel Assay (Assay 2), whole-cell patch clamp in HEK293 cells stably transfected with hERG cDNA; type: cell-based; details: human, HEK293 cells stably transfected with hERG cDNA, pH 7.4, 35° C.
Chain of hERG channel (Q12809 whole entry): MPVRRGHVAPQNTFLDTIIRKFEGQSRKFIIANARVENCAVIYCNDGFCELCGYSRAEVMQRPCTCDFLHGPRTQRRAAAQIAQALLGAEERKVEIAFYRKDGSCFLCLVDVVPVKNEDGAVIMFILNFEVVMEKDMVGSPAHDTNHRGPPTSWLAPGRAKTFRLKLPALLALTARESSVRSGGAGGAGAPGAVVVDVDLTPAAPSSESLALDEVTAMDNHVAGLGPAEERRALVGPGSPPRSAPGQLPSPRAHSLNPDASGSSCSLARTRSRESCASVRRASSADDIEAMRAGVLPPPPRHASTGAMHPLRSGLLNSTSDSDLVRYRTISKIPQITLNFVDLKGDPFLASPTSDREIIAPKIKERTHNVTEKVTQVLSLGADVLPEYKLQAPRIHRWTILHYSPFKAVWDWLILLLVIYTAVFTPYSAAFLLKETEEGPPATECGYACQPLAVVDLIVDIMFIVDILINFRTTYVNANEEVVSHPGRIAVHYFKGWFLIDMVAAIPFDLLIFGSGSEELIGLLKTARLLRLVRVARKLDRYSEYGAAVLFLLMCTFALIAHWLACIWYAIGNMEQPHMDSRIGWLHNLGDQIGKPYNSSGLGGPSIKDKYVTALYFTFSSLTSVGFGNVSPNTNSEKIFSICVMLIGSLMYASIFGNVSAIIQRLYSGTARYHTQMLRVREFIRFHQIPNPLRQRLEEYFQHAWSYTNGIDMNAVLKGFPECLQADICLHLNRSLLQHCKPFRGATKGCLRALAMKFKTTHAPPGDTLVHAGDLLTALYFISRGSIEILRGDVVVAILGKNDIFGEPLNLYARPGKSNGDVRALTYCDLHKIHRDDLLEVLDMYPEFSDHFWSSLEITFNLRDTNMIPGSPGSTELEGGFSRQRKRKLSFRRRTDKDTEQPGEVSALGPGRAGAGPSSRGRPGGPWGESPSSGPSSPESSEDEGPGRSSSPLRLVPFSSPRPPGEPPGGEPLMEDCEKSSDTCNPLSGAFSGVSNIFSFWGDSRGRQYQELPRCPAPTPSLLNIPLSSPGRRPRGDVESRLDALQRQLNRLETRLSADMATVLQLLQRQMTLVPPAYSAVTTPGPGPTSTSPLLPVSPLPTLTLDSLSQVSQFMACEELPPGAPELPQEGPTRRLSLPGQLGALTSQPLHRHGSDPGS
Text: hERG-Channel Assay (Assay 2)
Cells: HEK (human embryonic kidney) 293 cells were stably transfected with hERG cDNA.
Cells were superfused with a bath solution containing (mM): NaCl (137), KCl (4.0), MgCl2 (1.0), CaCl2 (1.8), Glucose (10), HEPES (10), pH 7.4 with NaOH. Patch pipettes were made from borosilicate glass tubing using a horizontal puller and filled with pipette solution containing (mM): K-aspartate (130), MgCl2 (5.0), EGTA (5.0), K2ATP (4.0), HEPES (10.0), pH 7.2 with KOH. Resistance of the microelectrodes was in the range between 2 and 5 MΩ.
Stimulation and Recording:
Membrane currents were recorded using an EPC-10 patch clamp amplifier and PatchMaster software. hERG-mediated membrane currents were recorded at 35° C., using the whole-cell configuration of the patch-clamp technique. Transfected HEK293 cells were clamped at a holding potential of −60 mV and hERG-mediated inactivating tail currents were elicited using a pulse pattern with fixed amplitudes (activation/inactivation: 40 mV for 2000 ms; recovery: −120 mV for 2 ms; ramp to 40 mV in 2 ms; inactivating tail current: 40 mV for 50 ms) repeated at 15 s intervals. During each inter-pulse interval, 4 pulses scaled down by a factor of 0.2 were recorded for a P/n leak subtraction procedure. Rs compensation was employed up to a level that safely allowed recording devoid of ringing.
Compound Preparation and Application:
The different concentrations of the test compounds were applied sequentially on each of the different cells investigated. A steady state level of baseline current was measured for at least 6 sweeps prior to the application of the first test compound concentration.
The test compound was dissolved in DMSO to yield a master stock solution which was diluted further in DMSO to stock solutions needed for the lower concentrations. Final dilutions in extracellular buffer were prepared freshly from these stocks by a 1:1000 dilution step each before starting the experiments.
Peak current amplitudes were measured 3 ms after the ramp to +40 mV. For baseline and each concentration, the peak currents of the three last sweeps before application of the next concentration were averaged. Residual currents (I/I0) were calculated for each cell as the fraction of actual average peak current and average baseline peak current.

| SMILES | In vitro Human Hepatocytes % Qh @ 1 μM (assay 4) [2] | % Aβ Reduction ([1]; single oral dose 25 mg/kg) | inhibition at 10 µM [3] | % Aβ Reduction ([1]; single oral dose 12.5 mg/kg) |
| --- | --- | --- | --- | --- |
| C[C@@H]1C[C@@]2(Cc3ccc(C#N)cc3[C@]23N=C(N)N(CCC(F)(F)F)C3=O)C[C@H](C)[C@H]1O [Example 1] | 0 % Qh | 25% | 13% |  |
| C[C@@H]1C[C@@]2(Cc3ccc(C#N)cc3[C@]23N=C(N)N(CC(C)(C)F)C3=O)C[C@H](C)[C@H]1O [Example 2] | 1.6 % Qh |  | 4.5% | 40% |
| C[C@@H]1C[C@@]2(Cc3ccc(C#N)cc3[C@]23N=C(N)N(CC2(F)CCOCC2)C3=O)C[C@H](C)[C@H]1O [Example 4] | 6.1 % Qh |  | 13% | 21% |

Now from value to molecule, other results behind:

| In vitro Human Hepatocytes % Qh @ 1 μM (assay 4) [2] | SMILES | % Aβ Reduction ([1]; single oral dose 25 mg/kg) | inhibition at 10 µM [3] | % Aβ Reduction ([1]; single oral dose 12.5 mg/kg) |
| --- | --- | --- | --- | --- |
| 13 % Qh | CC[C@@H]1C[C@@]2(Cc3ccc(C#N)cc3[C@]23N=C(N)N(CC(C)(C)F)C3=O)C[C@H](C)[C@H]1O [Example 7] | 58% | 15% |  |
| 12.4 % Qh | CC[C@@H]1C[C@]2(CC[C@H]1O)Cc1ccc(C#N)cc1[C@]21N=C(N)N(CC(C)(C)F)C1=O [Example 9] | 42% | 2.5% |  |
